Assay [1] relates to NF-κB. Kind of assay: Activation of NF-κB induced by TNF-α in HUVEC (EMSA). Particulars: 2 and 4 mM, TNF-α 100 U/ml, 90 minutes. The class given is cell-based, human. How it is done: Human umbilical vein endothelial cells (HUVEC) were obtained by the procedure of Dejana et al. (J. Cell Biol 1987, 104(5), 1403-1411) by treatment of the umbilical vein with. 0.2% collagenase P from C. histolyticum (Boehnnger Manheim GmbH, Manheim, Germany) for 20 minutes at 37° C. Next, cells were cultured in M199 medium (Flow Lab, Herts, U.K.) containing 100 U/ml penicillin, 100 μg/ml streptomycin, 2.5 μg/ml amphotercin B and 20% fetal calf serum. Primary cultures were plated in 25 cm^2 plastic flasks. After 24 hours cells were washed to remove those cells which had not adhered to the flask surface. Then, the same medium containing 10% fetal calf serum, 50 μg/ml endothelial cell growth supplement factor and 100 μg/ml heparn was added. After culturing for 5-7 days, cells reached confluence and were detached from the flask surface with 0.05% trypsin and 0.02% EDTA (Flow Lab). The reaction was inhibited by the addition of fetal calf serum, and then cells were washed and plated again in culture medium. Cells were grown to confluence in gelatin-coated flasks. Cells used for the experiments were from passages 2-7.
In this experiment, HUVEC cells were preincubated with Triflusal and HTB, at concentrations in both cases of 2 and 4 mM. Then these cells were stimulated with 100 U/ml TNF-α (Genzyme Diagnostics, Cambridge, Mass. USA) for 90 minutes. […]

For assay [2], the system named is COX-2. Kind of assay: PGE2 production in rat exudate (carrageenan air pouch). Format: in vivo. The conditions noted are these: oral 3-30 mg/kg, 6 h. How it is done: Lewis rats (175-200 g) were used in this study. Rats were randomly distributed in groups of 5 animals. An, air pouch was produced by subcutaneous injection of 20 ml of sterile air into the intrascapular area of animals in each group. Every two days, 10 ml of air were injected again into the cavity to keep the space open. Seven days after the first injection of air, 2 ml of a 1% carrageenan solution was injected into the air pouch in all groups to produce an inflammatory reaction. Test compound was administered orally 30 min before carrageenan administration. The animals were killed 6 h later and the volume of exudate was measured. The type and number of cells present were determined using standard Wright-Giemsa staining and a Coulter Counter cell counter, respectively. The exudate was centrifuged at 400 g at 4° C. for 7 min and PGE2 concentration was determined by enzyme-immunoassay (Amershan-Biotrak RPN222). The cell pellet was resuspended in 2 ml cold 0.85% NaCl. To eliminate red cell contamination, cells were subjected to a selective cellular lysis by the addition of 6 ml cold water for 20 seconds. The isotonicity of the cellular suspension was restored by the addition of 2 ml 3.5% NaCl. […]

The nature of assay [3]: Adjuvant-induced arthritis in the rat. Format: in vivo. Particulars: 10 mg/kg p.o. daily for 28 days, day 28. How it is done:
Adjuvant-induced arthritis is characterized by the development, from day 14 after adjuvant injection, of a chronic inflammation of immunological origin in several joints, with accumulation of inflammatory cells and release of cytokines. For this study, male Lewis rats with body weight between 100 and 150 g were used. Before the start of the study animals were acclimated for a period of at least 5 days. Animals were fasted for 18 hours before the study, with water ad libitum. Throughout the study, animals were allowed free access to drinking water, except during observation periods. Groups of five animals were randomized (Sham, Control and Triflusal). The duration of the study was 28 days. Arthritis was induced on day 1 of the study by subplantar administration of 0.1 ml of an emulsion formed with 10 mg M. butyricum and 10 ml Freund's incomplete adjuvant (Difco) to the right hindpaw of the animals from the Control and Triflusal groups. Sham animals received 0.1 ml Freund's incomplete adjuvant. […] On day 28 of the development of arthritis, the volume of the contralateral paw to that receiving the adjuvant injection was determined using a UGO BASILE 7150 plethysmometer. The inhibition of the increase in volume was calculated as follows: % Inh.=100−((T-S)/(C-S))*100 Where: T=Triflusal group; C=Control group; and S=Sham group

Regarding `CC(=O)Oc1cc(C(F)(F)F)ccc1C(=O)O` [triflusal, 2-Acetyloxy-4-trifluoromethylbenzoic acid, reference compound], the “inhibition of the activation of NF-κB induced by TNF-α” value in assay [1] was “concentration-dependently inhibit”. In addition, the “inhibition of PGE2 production in the exudate” value in assay [2] is given as “dose-dependently inhibits”. Besides, the “inhibition of the increase in volume of the contralateral paw” value in assay [3] is 63.1±8.0%.
Consider `O=C(O)c1ccc(C(F)(F)F)cc1O` [HTB, 2-hydroxy-4-trifluoromethylbenzoic acid], for which the “inhibition of the activation of NF-κB induced by TNF-α” value in assay [1] is given as “concentration-dependently inhibit”.

The values are drawn from patent publication US6509377B1, “Use of a 2-hydroxy-4-trifluoromethylbenzoic acid derivatives as inhibitors of the activation of the nuclear transcription factor NF-κB” (J. Uriach & Cia, S.A., priority 1999, dated 2003).
